# Results from patent publication US9670230B2, “Heteroaryl compounds and methods of use thereof” (SUNOVION PHARMACEUTICALS INC., priority 2012, dated 2017).
# Molecular target: recombinant human PDE-10 enzyme (Homo sapiens (Human), UniProt Q9Y233)
# Test: Molecular Devices IMAP PDE Fluorescence Polarization assay, human PDE-10 inhibition (enzyme assay IC50)
# Assay type: biochemical
# Details: recombinant human PDE-10 expressed in baculoviral system; Fluorescein-labeled cAMP/cGMP substrate; 40-minute incubation at 37° C.
# Description: In one embodiment, the compounds provided herein were assayed for their ability to inhibit human PDE-10A. In one embodiment, the activities of the compounds were determined using the Molecular Devices IMAP PDE Fluorescence Polarization assay using recombinant human PDE-10 enzyme expressed in a baculoviral system. Briefly, 10 μL of a compound (0.2 nM-20 μM) was added to either a 96-well half area black plate or a 384-well black plate along with 10 μL of Fluorescein-labeled cAMP/cGMP substrate as per manufacturer's instructions and 10 μL of PDE enzyme (activity 0.1 U). Following a 40-minute incubation at 37° C., 60 μL of IMAP binding reagent was added. The plate was then read on a Perkin Elmer Victor (480-535 nm). The data was analyzed using Prism Software (GraphPad Inc, San Diego, Calif.).
# Sequence of recombinant human PDE-10 enzyme (Q9Y233 whole entry): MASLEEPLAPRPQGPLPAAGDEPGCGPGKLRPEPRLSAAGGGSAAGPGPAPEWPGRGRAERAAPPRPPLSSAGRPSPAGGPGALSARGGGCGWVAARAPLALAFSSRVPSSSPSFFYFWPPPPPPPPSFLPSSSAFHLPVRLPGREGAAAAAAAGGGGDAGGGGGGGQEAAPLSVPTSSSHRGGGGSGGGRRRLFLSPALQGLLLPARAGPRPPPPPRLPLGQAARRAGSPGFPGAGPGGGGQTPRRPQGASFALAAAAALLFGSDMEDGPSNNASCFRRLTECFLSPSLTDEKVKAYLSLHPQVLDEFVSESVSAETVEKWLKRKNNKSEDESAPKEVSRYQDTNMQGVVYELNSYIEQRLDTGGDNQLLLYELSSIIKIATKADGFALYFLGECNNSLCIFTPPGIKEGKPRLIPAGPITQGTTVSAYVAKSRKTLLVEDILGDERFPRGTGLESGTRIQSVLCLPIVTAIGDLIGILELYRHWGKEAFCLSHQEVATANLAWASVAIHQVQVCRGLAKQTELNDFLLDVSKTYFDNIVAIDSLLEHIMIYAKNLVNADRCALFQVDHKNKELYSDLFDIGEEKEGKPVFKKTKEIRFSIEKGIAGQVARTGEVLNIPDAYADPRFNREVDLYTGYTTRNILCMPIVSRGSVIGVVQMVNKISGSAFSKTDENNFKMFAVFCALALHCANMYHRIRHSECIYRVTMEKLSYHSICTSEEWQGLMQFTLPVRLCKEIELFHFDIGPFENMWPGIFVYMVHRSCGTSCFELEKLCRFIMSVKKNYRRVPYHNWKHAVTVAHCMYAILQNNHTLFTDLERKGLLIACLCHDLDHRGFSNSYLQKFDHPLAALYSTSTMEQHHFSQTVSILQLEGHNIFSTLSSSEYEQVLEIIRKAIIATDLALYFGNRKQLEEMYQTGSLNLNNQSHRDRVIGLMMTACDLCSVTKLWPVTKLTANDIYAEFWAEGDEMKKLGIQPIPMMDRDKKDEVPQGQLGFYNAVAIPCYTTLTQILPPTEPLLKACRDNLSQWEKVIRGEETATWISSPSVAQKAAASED
row,IC50 [nM],Structure (SMILES)
1,≤ 10,"Cc1ccc2ccc(CCc3nc4c(C)ncc(C)n4n3)nc2c1 [Compound 1, 2-(2-(5,8-dimethyl-[1,2,4]triazolo[1,5-a]pyrazin-2-yl)ethyl)-7-methylquinoline]"
2,≤ 10,"COc1ccc2ccc(CCc3nc4c(C)ncc(C)n4n3)nc2c1 [Compound 2, 2-(2-(5,8-dimethyl-[1,2,4]triazolo[1,5-a]pyrazin-2-yl)ethyl)-7-methoxyquinoline]"
3,10 to 100,"Cc1ncc(C)n2nc(CCc3ccc4c(n3)NC(C)CC4)nc12 (stereo not drawn) [Compound 3, 7-(2-(5,8-dimethyl-[1,2,4]triazolo[1,5-a]pyrazin-2-yl)ethyl)-2-methyl-1,2,3,4-tetrahydro-1,8-naphthyridine]"
4,10 to 100,"Cc1ncc(C)n2nc(CCc3ccc4c(n3)N[C@H](C)CC4)nc12 [Compound 4, (R)-7-(2-(5,8-dimethyl-[1,2,4]triazolo[1,5-a]pyrazin-2-yl)ethyl)-2-methyl-1,2,3,4-tetrahydro-1,8-naphthyridine]"
5,10 to 100,"Cc1ncc(C)n2nc(CCc3ccc4c(n3)N[C@@H](C)CC4)nc12 [Compound 5, (S)-7-(2-(5,8-dimethyl-[1,2,4]triazolo[1,5-a]pyrazin-2-yl)ethyl)-2-methyl-1,2,3,4-tetrahydro-1,8-naphthyridine]"
6,10 to 100,"Cc1ncc(C)n2nc(CCc3ccc4c(n3)NC(C)CO4)nc12 (stereo not drawn) [Compound 6, 6-(2-(5,8-dimethyl-[1,2,4]triazolo[1,5-a]pyrazin-2-yl)ethyl)-3-methyl-3,4-dihydro-2H-pyrido[3,2-b][1,4]oxazine]"
7,10 to 100,"Cc1ncc(C)n2nc(CCc3ccc4c(n3)N[C@H](C)CO4)nc12 [Compound 7, (R)-6-(2-(5,8-dimethyl-[1,2,4]triazolo[1,5-a]pyrazin-2-yl)ethyl)-3-methyl-3,4-dihydro-2H-pyrido[3,2-b][1,4]oxazine]"
8,100 to 500,"Cc1ncc(C)n2nc(CCc3ccc4c(n3)N[C@@H](C)CO4)nc12 [Compound 8, (S)-6-(2-(5,8-dimethyl-[1,2,4]triazolo[1,5-a]pyrazin-2-yl)ethyl)-3-methyl-3,4-dihydro-2H-pyrido[3,2-b][1,4]oxazine]"
9,10 to 100,"CCC1COc2ccc(CCc3nc4c(C)ncc(C)n4n3)nc2N1 (stereo not drawn) [Compound 9, 6-(2-(5,8-dimethyl-[1,2,4]triazolo[1,5-a]pyrazin-2-yl)ethyl)-3-ethyl-3,4-dihydro-2H-pyrido[3,2-b][1,4]oxazine]"
10,100 to 500,"Cc1ncc(C)n2nc(CCc3ccc4c(n3)N(C)C(C)CO4)nc12 (stereo not drawn) [Compound 10, 6-(2-(5,8-dimethyl-[1,2,4]triazolo[1,5-a]pyrazin-2-yl)ethyl)-3,4-dimethyl-3,4-dihydro-2H-pyrido[3,2-b][1,4]oxazine]"
11,> 500,"CCC1COc2ccc(CCc3nc4c(C)ncc(C)n4n3)nc2N1C (stereo not drawn) [Compound 11, 6-(2-(5,8-dimethyl-[1,2,4]triazolo[1,5-a]pyrazin-2-yl)ethyl)-3-ethyl-4-methyl-3,4-dihydro-2H-pyrido[3,2-b][1,4]oxazine]"
12,100 to 500,"Cc1ncc(C)n2nc(CCc3ccc4c(n3)NC(C)(C)CO4)nc12 [Compound 12, 6-(2-(5,8-dimethyl-[1,2,4]triazolo[1,5-a]pyrazin-2-yl)ethyl)-3,3-dimethyl-3,4-dihydro-2H-pyrido[3,2-b][1,4]oxazine]"
